Test results: patent publication US9855243B2, “Topical anti-inflammatory pharmaceutical composition with zileuton cream formulation” (Qurient Co., Ltd., priority 2013, dated 2018)
Several values for one entry are separate records, joined by “and”; a condition that tells them apart may be missing. Equal entries are not always repeated.

What was measured:
[1] = system: atopic dermatitis symptoms; settings: clinical trials; oral administration; cited from earlier work
[2] = Screening of excipient suitability: zileuton with excipient, stability at 50° C.; format: physicochemical
Protocol: Suitability of components generally used in cream formulation with respect to zieluton was screened, prior to preparing a zieluton cream formulation. […] That is, the stability of excipient at 50° C. was tested.

[3] = system: inflammation reaction of asthma; settings: clinical trials; oral drug; cited from earlier work
[4] = Zileuton API alone, 2 weeks, 50° C.
[5] = Zileuton API alone, 4 weeks, 50° C.
[6] = with Carbomer 1:1, 2 weeks, 50° C.
[7] = with Carbomer 1:1, 4 weeks, 50° C.
[8] = with Ceteareth-20 1:1, 2 weeks, 50° C.
[9] = with Ceteareth-20 1:1, 4 weeks, 50° C.
[10] = with Hypromellose (HPMC) 1:1, 2 weeks, 50° C.
[11] = with Hypromellose (HPMC) 1:1, 4 weeks, 50° C.
[12] = with Hypromellose (HPMC) 1:1, Day 0
[13] = with Phospholipon 90H 1:1, 2 weeks, 50° C.
[14] = with Phospholipon 90H 1:1, 4 weeks, 50° C.
[15] = with Phospholipon 90H 1:1, Day 0
[16] = with Stearyl alcohol 1:1, 2 weeks, 50° C.
[17] = with Stearyl alcohol 1:1, 4 weeks, 50° C.
[18] = with Stearyl alcohol 1:1, Day 0
[19] = with Titanium dioxide 1:1, 2 weeks, 50° C.
[20] = with Titanium dioxide 1:1, 4 weeks, 50° C.
[21] = with Titanium dioxide 1:1, Day 0
[22] = with White wax 1:1, 2 weeks, 50° C.
[23] = with White wax 1:1, 4 weeks, 50° C.

Structure (SMILES): CC(c1cc2ccccc2s1)N(O)C(N)=O (racemic) [Zileuton, (±)-1-(1-(benzo [b]thiophen-2-yl)ethyl)-1-hydroxyurea]
- Effect on atopic dermatitis symptoms [1]: alleviates atopic dermatitis symptoms
- Appearance [2, 4]: White
- TRS. % [2, 4]: 3.311% and 3.006%
- Appearance [2, 5]: White
- TRS. % [2, 5]: 2.711% and 2.493%
- TRS. % ([2]; Zileuton API alone, Day 0): 2.378%
- Appearance [2, 6]: White
- TRS. % [2, 6]: 2.385% and 3.067%
- Appearance [2, 7]: White
- TRS. % [2, 7]: 2.330% and 2.403%
- Appearance ([2]; with Carbomer 1:1, Day 0): White
- TRS. % ([2]; with Carbomer 1:1, Day 0): 3.326%
- Appearance [2, 8]: White
- TRS. % [2, 8]: 3.445% and 3.365%
- Appearance [2, 9]: White
- TRS. % [2, 9]: 3.632% and 3.549%
- Appearance ([2]; with Ceteareth-20 1:1, Day 0): White
- TRS. % ([2]; with Ceteareth-20 1:1, Day 0): 2.394%
- Appearance [2, 10]: White
- TRS. % [2, 10]: 2.864% and 2.949%
- Appearance [2, 11]: White
- TRS. % [2, 11]: 2.555% and 2.580%
- Appearance [2, 12]: White
- TRS. % [2, 12]: 2.610%
- Appearance [2, 13]: White
- TRS. % [2, 13]: 2.820% and 2.846%
- Appearance [2, 14]: White
- TRS. % [2, 14]: 2.557% and 2.429%
- Appearance [2, 15]: White
- TRS. % [2, 15]: 2.400%
- Appearance [2, 16]: White
- TRS. % [2, 16]: 2.935% and 2.796%
- Appearance [2, 17]: White
- TRS. % [2, 17]: 2.512% and 2.567%
- Appearance [2, 18]: White
- TRS. % [2, 18]: 3.311%
- Appearance [2, 19]: White
- TRS. % [2, 19]: 2.803% and 2.839%
- Appearance [2, 20]: White
- TRS. % [2, 20]: 2.507% and 2.504%
- Appearance [2, 21]: White
- TRS. % [2, 21]: 2.344%
- Appearance [2, 22]: White
- TRS. % [2, 22]: 2.863% and 2.843%
- Appearance [2, 23]: White
- TRS. % [2, 23]: 2.459% and 2.381%
- Appearance ([2]; with White wax 1:1, Day 0): White
- TRS. % ([2]; with White wax 1:1, Day 0): 2.372%
- Anti-inflammatory effect in asthma [3]: effective anti-inflammatory pharmaceutical effect
